Measurements: US8741843B2, “Compositions and methods for inducing angiogenesis” (priority 2006, dated 2014)
Entries after “also recorded” stand apart in the source; their conditions may differ. Ends that are not written are not given here.

Tests used:
[1] = system: endothelial cells; assay: Hypoxia-induced apoptosis of endothelial cells (Annexin V FITC/PI FACS); type: cell-based, human; conditions: 24 hours hypoxia; for effect on hypoxia-induced apoptosis of endothelial cells: peptides 10 ng/ml
Protocol: FIG. 17 is a histogram depicting the effect of ADOPep1 on hypoxia-induced apoptosis of endothelial cells. Endothelial cells were exposed for 24 hours hypoxia in the presence of endothelial cell growth medium supplemented with 5% fetal calf serum (FCS), followed by incubation under hypoxia conditions with ADOPep1 (10 ng/ml) or anti-GRP78 antibody (100 ng/ml). Cells (100,000/tube) were incubated with Annexin-V FITC/PI for endothelial cell apoptosis determination. […] Similarly, anti-GRP78 antibody induced a reduction in apoptosis up to 32%.
FIGS. 24a-d are FACS analyses depicting hypoxia induced apoptosis. Endothelial cells were incubated for 24 hours under hypoxia conditions in the absence (FIG. 24a) or presence of 10 ng/ml of ADOPepe1 (FIG. 24b), peptide of Motif A (FIG. 24c) or peptide of motif C (FIG. 24d) and the level of apoptosis was determined using FACS analysis and the PI (shown on the Y axis)/Annexin V (shown on the X axis) markers.
FIG. 25 is a bar graph depicting the inhibition of hypoxia induced apoptosis by ADOPep 1, Motif A and Motif B. Endothelial cells were incubated for 24 hours under hypoxia conditions in the absence or presence of 10 ng/ml of ADOPepe1, Motif A, Motif B or motif C and the level of apoptosis was determined using FACS analysis and quantified as the percent of Annexin V and PI positive cells. The results represent average±standard deviation of 4 independent experiments.
FIGS. 33a-f are representative FACS analyses depicting a specific inhibition of hypoxia-induced apoptosis of endothelial cells by ADOPep1. Endothelial cells in Petri dishes were incubated for 24 hours with 5% FCS in supplement-free endothelial cell growth medium under normoxia (FIGS. 33a and d), exposed to 24 hours hypoxia (Figures c and f) or incubated under normoxia with 100 micromolar per 100,000 cells CoCl2 (FIGS. 33b and e), in the absence (FIGS. 33a-c) or presence (FIGS. 33d-f) of 10 ng/ml Adopep1 peptide (for 24 hours). Cells were trypsinized and immediately re-suspended in PBS with 5% FCS and 0.1% Na-azide. Samples containing 100,000 cells were tested for apoptosis using the Annexin-FITC (X axis) and propidium iodide (Y axis) kit (Bender Medsystems, Vienna, Austria), according to manufacturer's instructions. Results were analyzed by FACScan (Beckton Dickinson).
EC were incubated for 24 hours with 5% FCS in EC growth media in Petri dishes plates followed by 24 hours incubation under hypoxia conditions with ADOPep1 (10 ng/ml), anti GRP78 antibody (Santa Cruz Biotechnology, Calif., USA) (1 microgram/ml) or recombinant VEGF (10 ng/ml). The Annexin V FITC/PI detects the phosphatidylserin on the apoptotic cells using flow cytometry. Human Annexin V-FITC kit (Bender Medsystems, Vienna, Austria) was used for the measurement of EC apoptosis percentage following manufacturer's instructions. Samples were analyzed using a fluorescence activated cell sorter (FACScan Beckton Dickinson, Calif., USA).

[2] = system: endothelial cells; assay: Inhibition of binding of biotinylated ADOPep1 to endothelial cells by motif peptides; design: species or system human; conditions: normoxia, peptides 0.01, 0.1 or 1 ng/ml, ADOPep1^Biot 2 μg/ml
Protocol: FIG. 23 is a graph depicting the inhibition of binding of ADOPep1^Biot (2 μg/ml) to endothelial cells by specific peptides corresponding to conserved motifs from the ADOPeps. Endothelial cells were incubated for 2 hours under normoxia conditions in the presence of increasing concentrations (0.01, 0.1 or 1 ng/ml) of peptides having the amino acid sequences corresponding to Motif A (HWRRP; SEQ ID NO:7), Motif B (HWRRA; SEQ ID NO:8), Motif C (AHLLP; SEQ ID NO:6) or non-biotinylated ADOPep1 (SEQ ID NO:2) and then were incubated for 1 hour with biotinylated ADOPep1 (2 μg/ml) and the binding of biotinylated ADOPep1 to endothelial cells was determined using HRP-streptavidin.

[3] = target: T1, GRP78 on endothelial cells (Homo sapiens, UniProt P11021); assay: FACS competition of peptides with GRP78 polyclonal antibody on endothelial cells under hypoxia; type: binding; conditions: hypoxic conditions; listed as motif C
T1 construct: endogenous in cells; host or cells: HUVEC / endothelial cells from umbilical cords, under normoxia or hypoxia
T1 sequence (P11021 19-654): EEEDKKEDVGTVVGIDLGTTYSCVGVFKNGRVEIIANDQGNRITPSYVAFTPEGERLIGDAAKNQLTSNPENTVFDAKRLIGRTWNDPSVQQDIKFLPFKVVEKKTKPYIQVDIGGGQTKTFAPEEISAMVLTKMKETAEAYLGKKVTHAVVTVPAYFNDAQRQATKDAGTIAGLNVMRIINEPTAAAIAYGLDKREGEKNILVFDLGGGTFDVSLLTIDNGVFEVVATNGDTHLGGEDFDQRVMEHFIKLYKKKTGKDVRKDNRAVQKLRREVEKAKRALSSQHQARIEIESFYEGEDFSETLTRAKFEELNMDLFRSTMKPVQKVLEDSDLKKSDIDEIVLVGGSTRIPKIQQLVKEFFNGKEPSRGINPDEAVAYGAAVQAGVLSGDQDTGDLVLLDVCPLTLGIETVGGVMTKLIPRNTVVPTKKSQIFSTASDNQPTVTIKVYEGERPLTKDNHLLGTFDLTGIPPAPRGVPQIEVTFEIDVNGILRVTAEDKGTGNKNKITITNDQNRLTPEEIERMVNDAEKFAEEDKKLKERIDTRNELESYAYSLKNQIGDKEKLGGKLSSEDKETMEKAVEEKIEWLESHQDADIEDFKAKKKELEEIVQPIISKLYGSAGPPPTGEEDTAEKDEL
Protocol: Endothelial cells were cultured for 24 hours under hypoxic conditions in endothelial cell growth medium. Cells were removed by trypsin and incubated for 1 hour on ice with increasing concentrations of AdoPep1, Motif A and Motif C peptides. GRP78 polyclonal antibody (2 μg/100,000) was added to the cells for 2 hours on ice. Anti-goat FITC (Jackson ImmunoResearch) was added for 30 minutes on ice. IgG1-FITC was used as the isotype control. The samples were analyzed with a FACScan (Beckton Dickinson). […] FIG. 28d depicts the average percent binding of GRP78 to endothelial cells as a function of peptide amount as determined by 2 independent experiments.

[4] = system: endothelial cells (HUVEC); assay: Migration of endothelial cells under hypoxia (Chemicon QCM 96-well Migration Assay); type: cell-based, human; conditions: 5 hours hypoxia, 10 ng/ml
Protocol: FIG. 6 is a graph depicting migration of endothelial cells under hypoxia conditions. Endothelial cells (25,000) were incubated in endothelial cells growth medium free supplements in the migration chamber. ADOPep1 (SEQ ID NO:2), 2 (SEQ ID NO:3) and 3 (SEQ ID NO:4) were added to the feeder tray of the migratory kit at 1, 10 and 100 ng/ml for 5 hours hypoxia. Results were determined by a fluorescence ELISA reader and expressed as increase in percentage migration in Relative fluorescence Units.
FIGS. 26a-b are graphs depicting induction of endothelial cell migration under hypoxia by the ADOPEP motifs. Endothelial cells were incubated for 5 hours under hypoxia conditions in the presence of increasing concentrations of ADOPep1 (red line), peptide motif A (dark blue line), peptide motif B (green line) or peptide motif C (light blue line) and the migration of endothelial cells was detected. FIG. 26a—experiment 1; FIG. 26b—experiment 2.
Endothelial cell migration was evaluated by the Chemicon QCM 96-well Migration Assay (Chemicon International, Calif., USA) according to manufacturer's instructions. This kit utilizes a membrane with an 8 μm pore size. Migratory cells on the bottom of the insert membrane are dissociated from the membrane when incubated with cell detachment buffer provided by the kit. […] For the migration assay, HUVEC from passage 3 were incubated in endothelial cell (EC) growth medium free of supplements. After trypsinization, 25,000 EC were incubated in the migration chamber. ADOPeps were added at concentrations of 1, 10 and 100 ng/ml in the feeder tray for chemoattractant migration assay. Time of incubation was 5 hours for endothelial cells under hypoxic conditions. Results were determined in a Fluorescent ELISA reader at 480/520 nm.

[5] = system: endothelial cells (HUVEC); assay: Binding of biotinylated ADOPep to endothelial cells by FACS; design: species or system human; conditions: 5 micrograms per 100,000 cells
Protocol: FIG. 3 is a FACS analysis depicting the binding (in percentages) of biotinylated ADOPep1 (ADOPep1^Biot), an ADAM15 derived peptide (SEQ ID NO:2), to endothelial cells (EC) under normoxia. Biotinylated ADOPep1 at 0.05, 0.5 and 5 microgram/ml (μg/ml) were added to endothelial cells.
FIG. 4 is a FACS analysis depicting the binding (in total counts) of Biotinylated ADOPep1 to endothelial cells under normoxia and hypoxia conditions. […] X axis—Intensity of binding.
Human umbilical endothelial cells (HUVEC) were harvested by trypsin and 100,000 cells per sample were suspended in PBS+5% FCS+0.1% Na azide. Endothelial cells were either exposed for 5 hours to hypoxia or remained under normoxia conditions. Cells were stained for 2 hours on ice in dark with 0.05, 0.5, 5 μg/100,000 cells biotinylated ADOPeps. The cells were then washed twice with PBS, following which the cells were stained for 30 minutes with FITC-labeled Streptavidin (Jackson ImmunoResearch Laboratories, PA, USA). After washing, samples were analyzed using a fluorescence activated cell sorter (FACScan Beckton Dickinson, Calif., USA).

[6] = target: GRP78 (Homo sapiens, UniProt P11021); assay: Immune precipitation of endothelial cell lysate with biotinylated ADOPep1, PAGE, Western blot, mass spectrometry; type: binding; design: immune precipitation of endothelial cells lysate with biotinylated ADOPep1 under normoxia and hypoxia conditions; endogenous in cells; host or cells: HUVEC (lysate); conditions: normoxia and hypoxia
GRP78, sequence (P11021 19-654): as above
Protocol: HUVEC were seeded in 90 mm Petri dishes plates for 24 hours with complete Endothelial Cell Growth Medium (PromoCell. Heildelberg, Germany). Cells were washed twice with PBS and buffer lysate (50 mM Tris Cl (pH 8, 150 mM Na Cl, 0.02% Na azide, 0.1% SDS, 100 μg/ml PMSF, 1 μg/ml protease inhibitors, 1% NP-40) was added for 20 minutes on ice. After incubation, cells were scraped with a rubber policeman and transferred to a chilled microfuge tube. After centrifugation of lysate at 12,000 g for 2 minutes at 4° C., supernatant was transferred to a fresh microfuge tube and stored at −70° C.
Aliquots samples of lysates (500 μl) were incubated with 10 μg of biotinylated ADOPep1 for one hour at 4° C. by gently mixing. Streptavidin Sepharose beads (Amersham Biosciences, Uppsla, Sweeden) (50 μl) were added to the sample for a second incubation one hour at 4° C. by gently mixing. After then, sample was centrifuge for 20 seconds at 12,000 g and the pellet was saved and further washed 3 times. Finally the pellet was suspended in 100 μl of sample buffer for Western blot analysis. For ELISA, protein was eluted by 5 minutes incubation of the sample at room temperature in 1 ml of Tris-Glycin 0.2M (pH 2.2), followed by titration with 1M Tris (pH 9.1). […]

Row | Substance | effect on hypoxia-induced apoptosis of endothelial cells [1] | effect on hypoxia-induced apoptosis of endothelial cells ([1]; listed as motif C) | percent apoptosis (PI/Annexin V) ([1]; FIGS. 24a-d, 10 ng/ml, hypoxia alone 79.3%) [%] | inhibition of the binding of ADOPep1^Biot to endothelial cells [2] | inhibition of anti GRP78 binding to endothelial cells (in words) [3] | migration of endothelial cells [4] | binding to endothelial cells under hypoxia versus normoxia [5] | protein (receptor) bound by the peptide in endothelial cell lysate [6]
1 | AHLLP [Motif C, 5 amino acid motif peptide without HWRR] | no effect on apoptosis | no effect on hypoxia induced apoptosis | 81.1 | moderate inhibition of binding | did not inhibit anti GRP78 binding | no significant effect on endothelial cell migration | – | –
2 | HWRRA [Motif B, 5 amino acid motif peptide] | capable of inhibiting the hypoxia induced apoptosis; also recorded: significant inhibition of hypoxia induced apoptosis | – | – | significant inhibition | – | induced endothelial cell migration | – | –
3 | biotinylated ADOPep1: biotinylated ADOPep1 (SEQ ID NO:2) (HWRRAHLLPRLP; also: biotinylated) | – | – | – | – | – | – | increased under hypoxia | GRP78 protein
